Experiments:
[1] = biological target: T1, Aurora kinase A (Homo sapiens) (UniProt O14965); experiment: Inhibition of human Aurora A at 18.6 nM by HotSpot assay relative to control
T1 sequence (whole entry): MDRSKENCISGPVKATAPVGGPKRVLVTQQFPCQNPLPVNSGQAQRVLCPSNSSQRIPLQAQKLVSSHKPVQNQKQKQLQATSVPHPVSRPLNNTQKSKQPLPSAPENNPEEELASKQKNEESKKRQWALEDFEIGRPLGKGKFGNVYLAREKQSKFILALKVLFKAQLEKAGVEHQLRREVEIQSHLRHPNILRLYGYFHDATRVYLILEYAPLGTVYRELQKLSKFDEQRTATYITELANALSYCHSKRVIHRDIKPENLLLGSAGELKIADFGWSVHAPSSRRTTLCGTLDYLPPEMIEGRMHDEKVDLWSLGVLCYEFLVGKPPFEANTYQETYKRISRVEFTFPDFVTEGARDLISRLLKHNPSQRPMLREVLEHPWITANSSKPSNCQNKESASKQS

[2] = biological target: Cyclin-dependent kinase 7/ cyclin H (Homo sapiens) (UniProt P51946+P50613); experiment: Inhibition of human CDK7/cyclin H at 18.6 nM by HotSpot assay relative to control; assay type: protein-complex assay
[3] = biological target: Ribosomal protein S6 kinase beta-2 (Homo sapiens) (UniProt Q9UBS0); experiment: Inhibition of human RPS6KB2 at 18.6 nM by HotSpot assay relative to control
[4] = biological target: T2, Tyrosine-protein kinase TXK (Homo sapiens) (UniProt P42681); experiment: Inhibition of human TXK at 18.6 nM by HotSpot assay relative to control
T2 sequence (whole entry): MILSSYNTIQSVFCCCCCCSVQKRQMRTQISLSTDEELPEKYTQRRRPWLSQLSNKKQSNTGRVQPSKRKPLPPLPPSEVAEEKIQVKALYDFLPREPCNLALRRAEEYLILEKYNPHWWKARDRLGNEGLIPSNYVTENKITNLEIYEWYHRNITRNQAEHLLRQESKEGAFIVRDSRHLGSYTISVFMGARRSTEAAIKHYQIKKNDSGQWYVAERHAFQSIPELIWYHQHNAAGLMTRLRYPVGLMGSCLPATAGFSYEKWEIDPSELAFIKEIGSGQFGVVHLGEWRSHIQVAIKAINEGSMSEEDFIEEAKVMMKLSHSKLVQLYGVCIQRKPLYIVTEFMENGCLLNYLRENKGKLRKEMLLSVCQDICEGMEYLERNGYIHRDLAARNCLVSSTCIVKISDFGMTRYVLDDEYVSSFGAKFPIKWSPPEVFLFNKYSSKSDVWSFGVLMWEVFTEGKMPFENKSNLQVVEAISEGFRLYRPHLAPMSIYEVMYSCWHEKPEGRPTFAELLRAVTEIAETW

[5] = biological target: T3, Ephrin type-B receptor 3 (Homo sapiens) (UniProt P54753); experiment: Inhibition of human EPHB3 at 1.82 nM by HotSpot assay relative to control
T3 sequence (whole entry): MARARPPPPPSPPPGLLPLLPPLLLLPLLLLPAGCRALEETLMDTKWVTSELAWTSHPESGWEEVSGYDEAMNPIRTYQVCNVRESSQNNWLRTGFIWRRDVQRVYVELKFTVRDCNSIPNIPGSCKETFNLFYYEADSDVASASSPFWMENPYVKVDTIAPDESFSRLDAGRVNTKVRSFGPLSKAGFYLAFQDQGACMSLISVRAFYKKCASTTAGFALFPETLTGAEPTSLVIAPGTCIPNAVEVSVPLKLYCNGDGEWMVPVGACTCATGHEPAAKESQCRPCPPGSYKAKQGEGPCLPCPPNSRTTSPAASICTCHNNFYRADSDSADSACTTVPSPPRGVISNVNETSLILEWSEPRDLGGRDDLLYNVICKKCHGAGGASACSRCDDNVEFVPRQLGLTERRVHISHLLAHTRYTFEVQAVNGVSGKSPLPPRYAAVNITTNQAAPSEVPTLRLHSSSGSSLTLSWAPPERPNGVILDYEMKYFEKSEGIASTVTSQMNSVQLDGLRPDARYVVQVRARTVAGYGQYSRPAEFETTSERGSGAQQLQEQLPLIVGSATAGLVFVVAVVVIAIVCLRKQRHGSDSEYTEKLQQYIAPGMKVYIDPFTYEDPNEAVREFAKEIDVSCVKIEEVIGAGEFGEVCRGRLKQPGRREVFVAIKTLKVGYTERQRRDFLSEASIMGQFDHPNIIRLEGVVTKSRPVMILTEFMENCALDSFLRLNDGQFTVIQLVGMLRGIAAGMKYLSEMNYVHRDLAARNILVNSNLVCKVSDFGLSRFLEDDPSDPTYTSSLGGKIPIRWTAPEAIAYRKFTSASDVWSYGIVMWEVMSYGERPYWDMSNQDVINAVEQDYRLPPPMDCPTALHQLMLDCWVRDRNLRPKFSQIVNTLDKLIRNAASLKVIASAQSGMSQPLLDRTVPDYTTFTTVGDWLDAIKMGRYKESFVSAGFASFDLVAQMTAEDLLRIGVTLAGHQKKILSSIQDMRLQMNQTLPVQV

[6] = biological target: Mitogen-activated protein kinase 3 (Homo sapiens) (UniProt P27361); experiment: Inhibition of human ERK1 at 1.82 nM by HotSpot assay relative to control
[7] = biological target: STE20-like serine/threonine-protein kinase (Homo sapiens) (UniProt Q9H2G2); experiment: Inhibition of human STK2 at 1.82 nM by HotSpot assay relative to control
[8] = biological target: T4, Serine/threonine-protein kinase TBK1 (Homo sapiens) (UniProt Q9UHD2); experiment: Inhibition of human TBK1 at 1.82 nM by HotSpot assay relative to control
T4 sequence (whole entry): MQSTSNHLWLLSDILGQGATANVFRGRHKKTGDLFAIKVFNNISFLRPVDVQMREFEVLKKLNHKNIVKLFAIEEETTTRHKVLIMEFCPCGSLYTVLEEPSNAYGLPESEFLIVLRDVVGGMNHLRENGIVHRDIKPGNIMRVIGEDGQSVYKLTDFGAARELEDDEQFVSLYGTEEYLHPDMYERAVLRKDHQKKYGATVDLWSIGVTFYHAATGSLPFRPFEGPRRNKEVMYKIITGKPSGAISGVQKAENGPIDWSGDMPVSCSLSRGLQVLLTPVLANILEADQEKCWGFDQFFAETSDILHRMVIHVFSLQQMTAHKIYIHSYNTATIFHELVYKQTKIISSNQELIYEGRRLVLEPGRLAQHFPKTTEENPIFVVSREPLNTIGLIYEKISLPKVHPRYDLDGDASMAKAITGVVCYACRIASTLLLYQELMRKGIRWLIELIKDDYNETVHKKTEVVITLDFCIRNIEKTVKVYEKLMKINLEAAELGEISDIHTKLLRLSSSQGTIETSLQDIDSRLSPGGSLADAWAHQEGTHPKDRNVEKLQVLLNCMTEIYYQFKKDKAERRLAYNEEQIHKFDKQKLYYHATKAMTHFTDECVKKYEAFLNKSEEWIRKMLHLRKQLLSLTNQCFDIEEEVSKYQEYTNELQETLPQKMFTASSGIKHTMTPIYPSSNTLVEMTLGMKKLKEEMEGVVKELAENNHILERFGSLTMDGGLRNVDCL

Ribosomal protein S6 kinase beta-2 (Homo sapiens), sequence (Q9UBS0 whole entry): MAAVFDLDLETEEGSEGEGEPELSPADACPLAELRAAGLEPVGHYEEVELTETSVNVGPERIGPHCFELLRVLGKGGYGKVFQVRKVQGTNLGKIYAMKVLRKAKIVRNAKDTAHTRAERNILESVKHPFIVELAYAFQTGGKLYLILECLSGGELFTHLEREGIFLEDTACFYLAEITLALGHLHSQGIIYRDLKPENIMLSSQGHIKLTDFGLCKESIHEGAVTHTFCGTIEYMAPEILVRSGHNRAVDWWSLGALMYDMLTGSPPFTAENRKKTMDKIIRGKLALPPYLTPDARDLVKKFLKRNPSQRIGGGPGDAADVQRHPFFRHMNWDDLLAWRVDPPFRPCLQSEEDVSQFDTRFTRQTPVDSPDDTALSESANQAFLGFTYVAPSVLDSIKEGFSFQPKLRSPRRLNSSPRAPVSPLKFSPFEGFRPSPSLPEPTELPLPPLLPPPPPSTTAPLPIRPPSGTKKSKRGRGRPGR
STE20-like serine/threonine-protein kinase (Homo sapiens), sequence (Q9H2G2 whole entry, looked up): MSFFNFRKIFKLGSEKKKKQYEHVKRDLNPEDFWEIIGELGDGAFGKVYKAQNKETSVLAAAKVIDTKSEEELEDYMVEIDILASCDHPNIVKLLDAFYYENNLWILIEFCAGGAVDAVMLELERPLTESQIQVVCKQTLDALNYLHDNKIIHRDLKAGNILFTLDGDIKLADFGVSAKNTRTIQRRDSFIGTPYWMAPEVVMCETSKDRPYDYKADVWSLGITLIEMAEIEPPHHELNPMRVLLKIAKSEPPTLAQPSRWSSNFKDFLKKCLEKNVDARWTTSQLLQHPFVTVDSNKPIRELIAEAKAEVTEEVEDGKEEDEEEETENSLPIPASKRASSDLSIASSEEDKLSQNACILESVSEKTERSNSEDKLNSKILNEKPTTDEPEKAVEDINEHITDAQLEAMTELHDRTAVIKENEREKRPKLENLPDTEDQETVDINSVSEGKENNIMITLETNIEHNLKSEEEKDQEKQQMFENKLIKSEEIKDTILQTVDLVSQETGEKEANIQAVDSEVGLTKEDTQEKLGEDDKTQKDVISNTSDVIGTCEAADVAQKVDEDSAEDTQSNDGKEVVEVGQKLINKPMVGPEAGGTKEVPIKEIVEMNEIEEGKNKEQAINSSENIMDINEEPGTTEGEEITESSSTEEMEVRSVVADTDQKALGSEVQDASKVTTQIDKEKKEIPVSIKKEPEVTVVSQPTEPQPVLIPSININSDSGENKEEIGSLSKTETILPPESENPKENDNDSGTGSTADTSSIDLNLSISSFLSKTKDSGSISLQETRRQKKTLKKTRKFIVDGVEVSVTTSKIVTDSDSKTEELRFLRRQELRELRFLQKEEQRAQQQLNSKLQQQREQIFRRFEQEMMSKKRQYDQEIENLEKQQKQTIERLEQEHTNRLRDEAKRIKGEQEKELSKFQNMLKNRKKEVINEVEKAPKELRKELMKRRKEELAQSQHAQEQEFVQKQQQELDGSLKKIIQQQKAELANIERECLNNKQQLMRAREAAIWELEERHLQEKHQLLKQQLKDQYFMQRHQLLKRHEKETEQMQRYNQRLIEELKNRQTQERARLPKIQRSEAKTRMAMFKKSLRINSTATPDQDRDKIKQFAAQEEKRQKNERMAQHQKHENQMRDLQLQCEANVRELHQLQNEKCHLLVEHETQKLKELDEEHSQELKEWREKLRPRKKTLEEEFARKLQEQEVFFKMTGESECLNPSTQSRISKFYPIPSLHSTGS
Mitogen-activated protein kinase 3 (Homo sapiens), sequence (P27361 whole entry): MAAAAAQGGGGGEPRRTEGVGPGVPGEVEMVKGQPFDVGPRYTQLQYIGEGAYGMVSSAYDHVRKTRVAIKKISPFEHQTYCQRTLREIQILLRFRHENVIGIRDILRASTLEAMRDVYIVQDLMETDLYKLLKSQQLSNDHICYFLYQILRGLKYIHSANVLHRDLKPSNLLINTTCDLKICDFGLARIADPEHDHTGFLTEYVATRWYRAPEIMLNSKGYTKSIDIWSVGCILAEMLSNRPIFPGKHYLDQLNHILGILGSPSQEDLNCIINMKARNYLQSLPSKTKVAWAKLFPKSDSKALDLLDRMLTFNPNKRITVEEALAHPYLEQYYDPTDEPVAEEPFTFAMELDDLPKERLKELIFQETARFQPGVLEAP

| inhibition [1] [%] | inhibition [2] [%] | inhibition [3] [%] | inhibition [4] [%] | inhibition [5] [%] | inhibition [6] [%] | inhibition [7] [%] | inhibition [8] [%] | Compound |
| --- | --- | --- | --- | --- | --- | --- | --- | --- |
| -2.4 | -4.42 | 0.94 | -8.77 |  |  |  |  | C[C@]1(O)C[C@@H](c2nc(-c3ccc4ccc(-c5ccccc5)nc4c3)c3c(N)nccn32)C1 |
|  |  |  |  | 2.89 | -2.81 | 15.4 | 7.68 | C[C@@]1(C(=O)Nc2ccc(F)nc2)CCCN1c1nc(Nc2cc(C3CC3)n[nH]2)c2cccn2n1 |
